“And” between values parts separate entries of the source, which are not always exact repeats. Equal entries are not always repeated.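 Values below derive from 48-hour exposures of cells grown in 96-well plates, with endpoints linearly interpolated between the two concentrations bracketing the appropriate inhibition level. GI50 is the concentration that inhibits growth by half. TGI marks complete inhibition of growth.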
Experiments:
Assay in all cases: inhibition of tumour cell growth, NCI panel, 48 h; in the data active = GI50 below about 0.43 µM; inactive = the rest
MALME-3M melanoma = system: MALME-3M melanoma
786-0 renal = system: 786-0 renal
SR leukemia = system: SR leukemia
SNB-75 CNS = system: SNB-75 CNS
HOP-62 NSCLC = system: HOP-62 NSCLC
OVCAR-3 ovarian = system: OVCAR-3 ovarian
MOLT-4 leukemia = system: MOLT-4 leukemia
A549 NSCLC = system: A549 NSCLC
M19-MEL melanoma = system: M19-MEL melanoma
KM20L2 colon = system: KM20L2 colon

CN(C)c1ccc(/C=C2\N=C(c3ccccc3)N(c3cc(C(F)(F)F)ccc3Cl)C2=O)cc1
inactive: GI50 (MALME-3M melanoma) > 100 µM | GI50 (786-0 renal) > 100 µM | GI50 (SNB-75 CNS) > 100 µM | GI50 (HOP-62 NSCLC) > 100 µM | GI50 (OVCAR-3 ovarian) > 78.5 µM | GI50 (MOLT-4 leukemia) > 100 µM | GI50 (A549 NSCLC) > 100 µM
active: GI50 (SR leukemia) 0.0633 µM
> 100 µM: TGI (MALME-3M melanoma) | TGI (786-0 renal) | TGI (SNB-75 CNS) | TGI (HOP-62 NSCLC) | TGI (OVCAR-3 ovarian) | TGI (MOLT-4 leukemia) | TGI (A549 NSCLC)

COC(=O)C12CC(NC(=O)c3csc([C@@H](C[C@H](C(C)C)N(C)C(=O)[C@@H](NC(=O)[C@H]4CCCCN4C)C4CC4)OC(C)=O)n3)(C1)C2
active: GI50 (MALME-3M melanoma) 0.0357 µM | GI50 (786-0 renal) 0.0394 µM | GI50 (SR leukemia) 0.00193 µM | GI50 (SNB-75 CNS) 0.00548 µM | GI50 (HOP-62 NSCLC) 0.0347 µM | GI50 (OVCAR-3 ovarian) 0.0059 µM | GI50 (MOLT-4 leukemia) 0.00745 µM | GI50 (A549 NSCLC) 0.101 µM
> 16.7 µM: TGI (MALME-3M melanoma) | TGI (786-0 renal) | TGI (SR leukemia) | TGI (SNB-75 CNS) | TGI (HOP-62 NSCLC) | TGI (MOLT-4 leukemia) | TGI (A549 NSCLC)

NC(=O)[C@@H](CC1CC1)[C@@H](CCC(F)(F)F)C(=O)N[C@H]1N=C(c2ccccc2)c2cccc(F)c2NC1=O
32.5 µM: TGI (MALME-3M melanoma)
inactive: GI50 (MALME-3M melanoma) 15.4 µM | GI50 (786-0 renal) 17.8 µM | GI50 (SR leukemia) 12 µM | GI50 (SNB-75 CNS) 16.3 µM | GI50 (HOP-62 NSCLC) > 100 µM | GI50 (OVCAR-3 ovarian) > 100 µM | GI50 (MOLT-4 leukemia) 18.5 µM | GI50 (A549 NSCLC) > 100 µM
53.9 µM: TGI (786-0 renal)
> 100 µM: TGI (SR leukemia) | TGI (SNB-75 CNS) | TGI (HOP-62 NSCLC) | TGI (OVCAR-3 ovarian) | TGI (MOLT-4 leukemia) | TGI (A549 NSCLC)

CC[C@@]1(OC(=O)CN)C(=O)OCc2c1cc1n(c2=O)Cc2c-1nc1cc3c(cc1c2CCl)OCO3
active: GI50 (MALME-3M melanoma) 0.0501 µM | GI50 (786-0 renal) 0.0102 µM | GI50 (SR leukemia) < 0.01 µM | GI50 (SNB-75 CNS) < 0.0244 µM | GI50 (HOP-62 NSCLC) < 0.01 µM | GI50 (OVCAR-3 ovarian) 0.372 µM | GI50 (MOLT-4 leukemia) < 0.01 µM | GI50 (A549 NSCLC) 0.0201 µM
4.1 µM: TGI (OVCAR-3 ovarian)
4.44 µM: TGI (MALME-3M melanoma)
> 100 µM: TGI (SR leukemia) | TGI (A549 NSCLC)
> 33.8 µM: TGI (786-0 renal)

COC(=O)c1cc2c(cc1Cl)SC1=NN(C)S(=O)N1S2(=O)=O (configuration not stated)
> 100 µM: TGI (MALME-3M melanoma) | TGI (786-0 renal) | TGI (SR leukemia) | TGI (SNB-75 CNS) | TGI (HOP-62 NSCLC) | TGI (OVCAR-3 ovarian) | TGI (MOLT-4 leukemia) | TGI (A549 NSCLC)
inactive: GI50 (MALME-3M melanoma) > 100 µM | GI50 (786-0 renal) > 100 µM | GI50 (SR leukemia) > 100 µM | GI50 (SNB-75 CNS) 85.9 µM | GI50 (HOP-62 NSCLC) > 100 µM | GI50 (OVCAR-3 ovarian) > 100 µM | GI50 (MOLT-4 leukemia) > 100 µM | GI50 (A549 NSCLC) > 100 µM

CN(C)/C=N\c1ccnc(=O)[nH]1
> 100 µM: TGI (MALME-3M melanoma) | TGI (786-0 renal) | TGI (SNB-75 CNS) | TGI (M19-MEL melanoma) | TGI (HOP-62 NSCLC) | TGI (OVCAR-3 ovarian) | TGI (KM20L2 colon) | TGI (A549 NSCLC)

Cc1nc2ccc(Br)cc2c(=O)n1-c1ccc(NC2OCC(O)C(O)C2O)cc1 (configuration not stated)
65 µM and > 100 µM: TGI (MALME-3M melanoma)
> 100 µM: TGI (SNB-75 CNS) | TGI (HOP-62 NSCLC) | TGI (OVCAR-3 ovarian) | TGI (MOLT-4 leukemia) | TGI (A549 NSCLC)
42.2 µM and > 100 µM: TGI (786-0 renal)
inactive: GI50 (MALME-3M melanoma) 23.2 µM and > 100 µM | GI50 (786-0 renal) 19.1 µM and > 100 µM | GI50 (SR leukemia) 25 µM and 61 µM | GI50 (SNB-75 CNS) 38.7 µM and 92.3 µM | GI50 (OVCAR-3 ovarian) 34.8 µM and > 100 µM | GI50 (MOLT-4 leukemia) 19.6 µM and 71.2 µM
59.7 µM and > 100 µM: TGI (SR leukemia)

Oc1c(Cl)cc(Cl)c2ccc(Cn3cc(-c4cc(C(F)(F)F)cc(C(F)(F)F)c4)nn3)nc12
inactive: GI50 (MALME-3M melanoma) 1.47 µM | GI50 (786-0 renal) 1.97 µM | GI50 (SR leukemia) 0.714 µM | GI50 (SNB-75 CNS) 1.47 µM | GI50 (HOP-62 NSCLC) 15.5 µM | GI50 (OVCAR-3 ovarian) 1.28 µM | GI50 (MOLT-4 leukemia) 0.823 µM | GI50 (A549 NSCLC) 15.8 µM
5.68 µM: TGI (SR leukemia)
5.91 µM: TGI (MOLT-4 leukemia)
2.56 µM: TGI (OVCAR-3 ovarian)
30.7 µM: TGI (HOP-62 NSCLC)
3.21 µM: TGI (MALME-3M melanoma)
4.47 µM: TGI (786-0 renal)
8.09 µM: TGI (SNB-75 CNS)
31.6 µM: TGI (A549 NSCLC)

CN1CCN(CCOc2ccc(-c3cnc4c(-c5cccc(F)c5)cnn4c3)cc2)CC1
3.73 µM: TGI (HOP-62 NSCLC)
3.53 µM: TGI (SNB-75 CNS)
inactive: GI50 (MALME-3M melanoma) 1.66 µM | GI50 (786-0 renal) 1.79 µM | GI50 (SR leukemia) 4.02 µM | GI50 (SNB-75 CNS) 1.39 µM | GI50 (HOP-62 NSCLC) 1.72 µM | GI50 (OVCAR-3 ovarian) 1.87 µM | GI50 (MOLT-4 leukemia) 2.15 µM | GI50 (A549 NSCLC) 1.9 µM
4.03 µM: TGI (OVCAR-3 ovarian)
4.82 µM: TGI (MOLT-4 leukemia)
> 100 µM: TGI (SR leukemia)
3.94 µM: TGI (A549 NSCLC)
3.42 µM: TGI (786-0 renal)
3.23 µM: TGI (MALME-3M melanoma)

CC1(c2cc3c(cc2Br)OCO3)SCCCS1
> 100 µM: TGI (786-0 renal) | TGI (SNB-75 CNS) | TGI (M19-MEL melanoma) | TGI (HOP-62 NSCLC) | TGI (OVCAR-3 ovarian) | TGI (KM20L2 colon) | TGI (A549 NSCLC)
96.2 µM: TGI (MOLT-4 leukemia)

Cc1cc(Nc2nc(C(=O)Nc3ccccc3)nc3ccccc23)n[nH]1
inactive: GI50 (MALME-3M melanoma) 13.8 µM | GI50 (786-0 renal) 10.1 µM | GI50 (SR leukemia) 4.36 µM | GI50 (SNB-75 CNS) 6.8 µM | GI50 (HOP-62 NSCLC) 14.2 µM | GI50 (OVCAR-3 ovarian) 11.5 µM | GI50 (MOLT-4 leukemia) 9.75 µM | GI50 (A549 NSCLC) 13.9 µM
> 25 µM: TGI (MALME-3M melanoma) | TGI (786-0 renal) | TGI (SR leukemia) | TGI (SNB-75 CNS) | TGI (HOP-62 NSCLC) | TGI (OVCAR-3 ovarian) | TGI (MOLT-4 leukemia) | TGI (A549 NSCLC)

c1cc(-c2nnc(SSc3ncnc4nc[nH]c34)o2)ccn1
active: GI50 (OVCAR-3 ovarian) 0.319 µM
> 100 µM: TGI (MALME-3M melanoma) | TGI (786-0 renal) | TGI (SR leukemia) | TGI (SNB-75 CNS) | TGI (HOP-62 NSCLC) | TGI (MOLT-4 leukemia) | TGI (A549 NSCLC)
inactive: GI50 (MALME-3M melanoma) 2.08 µM | GI50 (786-0 renal) 0.986 µM | GI50 (SR leukemia) 0.576 µM | GI50 (SNB-75 CNS) 0.672 µM | GI50 (HOP-62 NSCLC) 2.52 µM | GI50 (MOLT-4 leukemia) 1.23 µM | GI50 (A549 NSCLC) 23 µM
1.73 µM: TGI (OVCAR-3 ovarian)

Cc1cc(C)c2c(n1)sc1c(N)ncnc12
inactive: GI50 (MALME-3M melanoma) > 25 µM | GI50 (786-0 renal) > 25 µM | GI50 (SR leukemia) 9.43 µM | GI50 (SNB-75 CNS) > 20.8 µM | GI50 (HOP-62 NSCLC) > 25 µM | GI50 (OVCAR-3 ovarian) > 25 µM | GI50 (MOLT-4 leukemia) > 25 µM | GI50 (A549 NSCLC) > 25 µM
> 25 µM: TGI (MALME-3M melanoma) | TGI (786-0 renal) | TGI (SR leukemia) | TGI (SNB-75 CNS) | TGI (HOP-62 NSCLC) | TGI (OVCAR-3 ovarian) | TGI (MOLT-4 leukemia) | TGI (A549 NSCLC)

CCCCCCCCOC(=O)c1c(C)[nH]c(/C=C2\N=C(c3ccc[nH]3)C=C2OC)c1C
18.5 µM: TGI (MOLT-4 leukemia)
2.67 µM: TGI (MALME-3M melanoma)
1.05 µM: TGI (SR leukemia)
1.32 µM: TGI (786-0 renal)
11.7 µM: TGI (HOP-62 NSCLC)
active: GI50 (786-0 renal) 0.0407 µM | GI50 (SR leukemia) < 0.0169 µM | GI50 (SNB-75 CNS) 0.0451 µM | GI50 (HOP-62 NSCLC) 0.23 µM | GI50 (OVCAR-3 ovarian) 0.0276 µM | GI50 (MOLT-4 leukemia) < 0.0201 µM | GI50 (A549 NSCLC) 0.118 µM
0.432 µM: TGI (SNB-75 CNS)
inactive: GI50 (MALME-3M melanoma) 0.641 µM
0.422 µM: TGI (OVCAR-3 ovarian)
13.3 µM: TGI (A549 NSCLC)

CCN1CCN(Cc2ccc(NC(=O)Nc3nc4ccc(Oc5ccnc(C(=O)NC)c5)cc4s3)cc2C(F)(F)F)CC1
0.846 µM: TGI (SR leukemia)
active: GI50 (SR leukemia) 0.281 µM
3.78 µM: TGI (HOP-62 NSCLC)
2.73 µM: TGI (SNB-75 CNS)
5.02 µM: TGI (MOLT-4 leukemia)
2.67 µM: TGI (MALME-3M melanoma)
3.71 µM: TGI (A549 NSCLC)
2.36 µM: TGI (786-0 renal)
inactive: GI50 (MALME-3M melanoma) 1.2 µM | GI50 (786-0 renal) 1.03 µM | GI50 (SNB-75 CNS) 1.37 µM | GI50 (HOP-62 NSCLC) 1.95 µM | GI50 (OVCAR-3 ovarian) 1.89 µM | GI50 (MOLT-4 leukemia) 2.13 µM | GI50 (A549 NSCLC) 1.99 µM
3.59 µM: TGI (OVCAR-3 ovarian)
